Measurements as given in ChEMBL document CHEMBL4725449, “Brain Penetrable Inhibitors of Ceramide Galactosyltransferase for the Treatment of Lysosomal Storage Disorders” (ACS Med Chem Lett, 2020).

Key:
[1] = Drug uptake in C57BL/6 mouse brain at 3 mg/kg, iv measured at 5 mins; assay type: ADME, organism-based; settings: read-out: Drug uptake
[2] = (§1) In vivo inhibition of GalCer de novo synthesis in adult C57BL/6 mouse kidney assessed as reduction in [13C] galactose incorporation into GalCer at 1 mg/kg, po via gavage treated with compound for 1 hr prior to intraperitoneal injection of [13C] galactose measured after 5 hrs of compound administration relative to control; assay type: functional
[3] = as §1, with “of SFT” for “of GalCer”, “into SFT” for “into GalCer”, “at 10” for “at 1”; assay type: functional
[4] = Drug uptake in C57BL/6 mouse brain at 3 mg/kg, iv measured at 1 hr; assay type: ADME, organism-based; settings: read-out: Drug uptake
[5] = Volume of distribution at steady state in Beagle dog at 1 mg/kg, iv; assay type: ADME, organism-based, Canis lupus familiaris; settings: in vivo, read-out: Vdss
[6] = AUC (0 to last) in Sprague-Dawley rat at 3 mg/kg, po; assay type: ADME, organism-based; parameters: time 0 - last, route oral, dose 3 mg/kg; settings: in vivo
[7] = Tmax in Beagle dog at 3 mg/kg, po; assay type: ADME, organism-based, Canis lupus familiaris; settings: in vivo
[8] = Protein binding in C57BL/6 mouse plasma; assay type: ADME, cell-free; settings: read-out: PPB
[9] = Half life in Sprague-Dawley rat at 1 mg/kg, iv; assay type: ADME, organism-based; settings: in vivo
[10] = as §1, with “SFT” for “GalCer”; assay type: functional
[11] = target: T1, 2-hydroxyacylsphingosine 1-beta-galactosyltransferase (Mus musculus, UniProt Q64676); assay: Inhibition of mouse UGT8 assessed as redcution in GalCer accumulation
T1 sequence (Q64676 whole entry): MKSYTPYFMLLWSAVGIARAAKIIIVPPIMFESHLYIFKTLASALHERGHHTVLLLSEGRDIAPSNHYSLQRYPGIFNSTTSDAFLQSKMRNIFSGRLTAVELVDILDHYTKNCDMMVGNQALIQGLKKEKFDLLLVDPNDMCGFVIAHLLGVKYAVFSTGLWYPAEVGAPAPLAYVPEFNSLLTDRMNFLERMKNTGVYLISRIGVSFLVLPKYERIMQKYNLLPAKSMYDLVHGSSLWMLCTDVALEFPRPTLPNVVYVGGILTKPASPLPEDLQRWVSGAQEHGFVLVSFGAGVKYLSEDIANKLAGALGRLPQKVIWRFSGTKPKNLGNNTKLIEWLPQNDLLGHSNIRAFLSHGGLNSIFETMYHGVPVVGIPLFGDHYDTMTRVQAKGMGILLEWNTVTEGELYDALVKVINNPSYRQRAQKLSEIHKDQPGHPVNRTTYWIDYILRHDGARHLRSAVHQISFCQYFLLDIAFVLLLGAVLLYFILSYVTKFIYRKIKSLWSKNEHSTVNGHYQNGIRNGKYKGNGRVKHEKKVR

[12] = target: T2, UDP-glucuronosyltransferase 1A1 (Homo sapiens, UniProt P22309); assay: Inhibition of UGT1A1 (unknown origin); assay type: ADME
T2 sequence (P22309 whole entry): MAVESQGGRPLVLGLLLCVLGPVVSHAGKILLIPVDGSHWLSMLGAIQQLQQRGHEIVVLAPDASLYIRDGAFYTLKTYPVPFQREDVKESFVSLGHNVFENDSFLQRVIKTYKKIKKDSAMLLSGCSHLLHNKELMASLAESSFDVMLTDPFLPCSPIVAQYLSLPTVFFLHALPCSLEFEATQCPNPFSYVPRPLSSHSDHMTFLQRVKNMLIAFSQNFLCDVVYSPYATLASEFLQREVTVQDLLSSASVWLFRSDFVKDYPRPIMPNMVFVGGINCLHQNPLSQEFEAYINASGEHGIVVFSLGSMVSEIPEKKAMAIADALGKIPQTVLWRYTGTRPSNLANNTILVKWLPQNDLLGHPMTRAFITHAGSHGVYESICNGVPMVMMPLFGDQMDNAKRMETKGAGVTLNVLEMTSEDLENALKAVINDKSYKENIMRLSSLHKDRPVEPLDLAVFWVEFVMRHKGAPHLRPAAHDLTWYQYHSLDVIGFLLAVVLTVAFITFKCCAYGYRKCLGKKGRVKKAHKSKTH

[13] = as §1, with “at 0.3” for “at 1”; assay type: functional
[14] = AUC (0 to last) in Beagle dog at 3 mg/kg, po; assay type: ADME, organism-based, Canis lupus familiaris; parameters: time 0 - last, route oral, dose 3 mg/kg; settings: in vivo
[15] = (§2) In vivo inhibition of GalCer de novo synthesis in PN14 to PN21 days C57BL/6 mouse brain assessed as reduction in [13C] galactose incorporation into GalCer at 10 mg/kg, po bid for 2 days and single dose at day 3 treated 1 hr prior to intraperitoneal injection of [13C] galactose measured after 5 hrs of last dose relative to control; assay type: functional; settings: C57BL/6, 72 h, time 3 day
[16] = Cmax in C57BL/6 mouse at 3 mg/kg, po; assay type: ADME, organism-based; parameters: route oral, dose 3 mg/kg; settings: in vivo
[17] = Half life in C57BL/6 mouse at 1 mg/kg, iv; assay type: ADME, organism-based; settings: in vivo
[18] = Cmax in Beagle dog at 3 mg/kg, po; assay type: ADME, organism-based, Canis lupus familiaris; parameters: route oral, dose 3 mg/kg; settings: in vivo
[19] = Ratio of drug concentration in brain to plasma in C57BL/6 mouse measured at 1 hr; assay type: ADME, organism-based; settings: read-out: BPR
[20] = Clearance in Beagle dog at 1 mg/kg, iv; assay type: ADME, organism-based, Canis lupus familiaris; settings: in vivo
[21] = as §2, with “SFT” for “GalCer”, “30” for “10”; assay type: functional; settings: C57BL/6, 72 h, time 3 day
[22] = Thermodynamic solubility of the compound […] at pH 7.4; assay type: physicochemical; settings: read-out: Therm_solubility
[23] = Half life in Beagle dog at 1 mg/kg, iv; assay type: ADME, organism-based, Canis lupus familiaris; settings: in vivo
[24] = as §2, with “SFT” for “GalCer”; assay type: functional; settings: C57BL/6, 72 h, time 3 day
[25] = In vivo inhibition of GalCerde novo synthesis in po dosed PN14 to PN21 days C57BL/6 mouse brain assessed as reduction in [13C] galactose incorporation into GalCer administered twice for 2 days and single dose at day 3 treated 1 hr prior to intraperitoneal injection of [13C] galactose measured after 5 hrs of last dose; assay type: functional; settings: C57BL/6, 72 h, time 3 day
[26] = as §1, with “at 10” for “at 1”; assay type: functional
[27] = Oral bioavailability in Beagle dog at 3 mg/kg; assay type: ADME, organism-based, Canis lupus familiaris; settings: in vivo
[28] = as §1, with “at 3” for “at 1”; assay type: functional
[29] = Apparent permeability of the compound at pH 6.5 to 7.4 by PAMPA; assay type: ADME

concentration at 5 min [1]: 2050 ng/mL
concentration at 1 h [4]: 148 ng/mL
Vd [5]: 3.32 L/kg
AUC(0-t) [6]: 3060 ng·h/mL
Tmax [7]: 1.33 h
fraction unbound [8]: < 0.01
half-life [9]: 258 min
IC50 [11]: 0.2 nM
IC50 [12]: > 10 µM
AUC(0-t) [14]: 4190 ng·h/mL
Cmax [16]: 306 ng/mL
half-life [17]: 67.8 min
Cmax [18]: 693 ng/mL
Kp at 1 h [19]: 0.46
clearance [20]: 6.32 mL/min/kg
solubility thermodynamic [22]: < 0.5 µM
half-life [23]: 816 min
bioavailability [27]: 52%
Papp [29]: > 80 ×10⁻⁶ cm/s
Compound: CNC(=O)c1csc2c(C(F)(F)F)cc(N3CCC(OC(=O)N[C@@H](C)COC(F)(F)F)CC3)nc12
inhibition in vivo at 1 mg/kg [2]: 43%
inhibition in vivo at 10 mg/kg [3]: 95%
inhibition in vivo at 1 mg/kg [10]: 50%
inhibition in vivo at 0.3 mg/kg [13]: 19%
inhibition in vivo at 10 mg/kg [15]: 94%
inhibition in vivo at 30 mg/kg [21]: 98%
inhibition in vivo at 10 mg/kg [24]: 97%
ED50 [25]: < 3 mg/kg
inhibition in vivo at 10 mg/kg [26]: 85%
inhibition in vivo at 3 mg/kg [28]: 72%
